The values that follow come from PubChem BioAssay (NCI).

Holding throughout (assay): growth of human tumour cells (NCI), 48 h
The test system of experiment [1] is BT-549 breast.
The test system of experiment [2] is EKVX NSCLC.
The test system of experiment [3] is HOP-92 NSCLC.
Experiment [4] has as its system KM12 colon.
Experiment [5] relates to NCI-H23 lung.
Experiment [6] concerns NCI-H522 lung.
For experiment [7], the system named is SF-268 CNS.
Experiment [8] deals with SW-620 colon.
The test system of experiment [9] is CCRF-CEM leukemia.
Experiment [10] concerns RPMI-8226 leukemia.

Each structure is given as a SMILES string.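 Following 48 hours of exposure in 96-well plates, responses at five concentrations were used to interpolate endpoints linearly. Definition used: TGI = concentration required for complete inhibition of growth.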

Consider `N/C(CC/C(N)=N\O)=N\O`, for which the TGI in [1], in experiment [2], in [3], in experiment [4], in [5] and in [6] was more than 100 µM each time. The TGI in experiment [7] and in experiment [8] was more than 100 µM throughout.
In the case of `COc1ccc(-n2sc3ncc(-c4ccccc4)cc3c2=O)cc1`, the TGI was more than 100 µM in [1]; more than 100 µM in [9]; more than 100 µM in experiment [2]; more than 100 µM in experiment [3]; more than 100 µM in experiment [4]; 53.3 µM in experiment [5]. In addition, the TGI is 66.8 µM in experiment [10] and more than 100 µM in experiment [8].
On to `Oc1ccc(-c2cc(-c3c(O)cc(O)cc3O)on2)cc1`, for which the TGI in [1], in experiment [9], in [2], in experiment [4], in experiment [5] and in experiment [6] was more than 100 µM in each case. Besides, the TGI in [10], in experiment [7] and in experiment [8] was more than 100 µM each time.
For the compound `CSc1n[nH]c(N)c1C(=O)Nc1ccc(Cl)cc1`, the TGI in experiment [1], in [9], in [2], in experiment [4], in experiment [5] and in [6] was more than 100 µM each time. Besides, the TGI in experiment [10], in [7] and in experiment [8] was more than 100 µM each time.
With `O=c1c2cc([N+](=O)[O-])ccc2n2n1Cc1ccccc1CC2`, the TGI in [1] is more than 100 µM; in experiment [9], more than 100 µM; in [2], 52.5 µM; in experiment [4], more than 100 µM; in [5], more than 100 µM; in [6] it was more than 100 µM. In addition, the TGI in experiment [10], in experiment [7] and in [8] was more than 100 µM throughout.
`Oc1c(OCc2nnc(CCCCCCCCc3nnc(COc4ccc5ccccc5c4O)n3Nc3ccccc3)n2Nc2ccccc2)ccc2ccccc12`: the TGI amounted to 25.7 µM in [1]; 31.6 µM in experiment [2]; 32.3 µM in experiment [3]; 19 µM in experiment [4]; 35.2 µM in [5]; 27.3 µM in experiment [6]. The TGI in experiment [10] was found to be 26.7 µM; in experiment [7], 27 µM; in [8] it was 24.6 µM.
For `O=S(=O)(O)c1ccc(NN(c2c(O)ccc3ccccc23)S(=O)(=O)O)cc1`, the TGI in experiment [1], in [9], in [2], in [4], in experiment [5] and in experiment [6] was more than 100 µM in each case. Moreover, the TGI in experiment [10], in experiment [7] and in experiment [8] was more than 100 µM throughout.
For `N#CI1OC(=O)c2ccccc21`, the TGI in [1] was more than 100 µM; in experiment [9], more than 100 µM; in experiment [2] it was more than 100 µM; in experiment [4], more than 100 µM; in experiment [5], more than 100 µM; in experiment [6], 55.6 µM. Also, the TGI in experiment [10], in [7] and in [8] was more than 100 µM throughout.
As to `COc1c(C2(c3ccc(F)cc3)SCCCS2)c(=O)c1=O`, the TGI in experiment [1], in experiment [9], in experiment [2], in experiment [3], in [4] and in [5] was more than 100 µM throughout. Further, the TGI in [10], in experiment [7] and in experiment [8] was more than 100 µM each time.
For `COc1ccc(CN2C(=O)CCC/C=C\[C@H]2CI)cc1`, the TGI in experiment [1] stood at 33.7 µM; in experiment [2], 22.5 µM; in experiment [3], 25.3 µM; in experiment [4] it was 23 µM; in experiment [5] it was 28.7 µM; in [6], 26.5 µM. The TGI in experiment [10] was 31.2 µM; in [7], 27.2 µM; in experiment [8], 23.8 µM.
With `COC(=O)Cc1c([C@@H]2Nc3ccccc3[C@H]2CC(=O)OC)[nH]c2ccccc12`, the TGI in [1] is 75 µM; in experiment [9] it was more than 100 µM; in [2], more than 100 µM; in [3], more than 100 µM; in [5], more than 100 µM; in experiment [10] it was 49.4 µM. Besides, the TGI in experiment [7] and in [8] was more than 100 µM throughout.
`O=C1CC(NC(=O)C(F)(F)F)c2c(Br)sc(N3CCC(c4ccccc4)CC3)c21` (stereo unspecified): the TGI in [1] is more than 100 µM; in [9], more than 100 µM; in experiment [2], more than 100 µM; in [3] it was 41.1 µM; in [4] it was more than 100 µM; in experiment [5], more than 100 µM. For the same compound, the TGI in experiment [6], in [7] and in experiment [8] was more than 100 µM each time.
With `O=S(=O)(O)c1cc(Cl)c(O)c2ncc(Cl)cc12`, the TGI in experiment [1], in experiment [9], in experiment [2], in experiment [3], in experiment [4] and in [5] was more than 100 µM in each case. Besides, the TGI in experiment [10] and in [8] was more than 100 µM throughout.
Turning to `COc1cc2c(cc1OC)C(=O)N(c1ccc(O)cc1)C2`, the TGI in experiment [1], in [9], in experiment [2], in experiment [3], in experiment [5] and in experiment [6] was more than 100 µM in each case. In addition, the TGI in experiment [10], in experiment [7] and in experiment [8] was more than 100 µM in each case.
As for `O=C1Nc2ccccc2C(=O)OC(Cc2ccccc2)=Nc2ccccc21`, the TGI in experiment [1], in experiment [9], in experiment [2], in [4], in experiment [5] and in [6] was more than 100 µM in each case. Further, the TGI in experiment [10], in [7] and in experiment [8] was more than 100 µM in each case.
